Experiment [1] is described as follows: Relative ihibition of bovine retina PDE6 and PDE5 of human platelets.
Experiment [2] can be described thus: Relative inhibition of bovine heart PDE1 and PDE5 of human platelets.
Experiment [3] can be described thus: Relative inhibition of PDE4 of rat kidney and PDE5 of human platelets.
The nature of experiment [4]: Relative inhibition of PDE2 of rat kidney and PDE5 of human platelets.
The target in experiment [5] is cGMP-specific 3',5'-cyclic phosphodiesterase (Homo sapiens, UniProt O76074). Kind of experiment: Inhibition of phosphodiesterase type 5 (PDE5) of human platelets.

As for `CCCOc1ccc(S(=O)(=O)N2CCN(C)CC2)cc1-c1nc(O)c2cc3[nH]cnc3cc2n1`, the IC50 ratio in experiment [1] amounted to 2; in experiment [2], 90; in experiment [3], 1600; in experiment [4], 1300.
Take `CCCOc1ccc(S(=O)(=O)N2CCN(C)CC2)cc1-c1nc(O)c2cc3c(cc2n1)ncn3Cc1ccccc1`: the IC50 ratio in experiment [1] was 20; in experiment [2], 3400; in experiment [3], 600; in experiment [4], > 10000. Also, in experiment [5], the concentration for half-maximal inhibition (IC50) was found to be 5.3 nM.
For `CCCOc1ccc(C(N)=O)cc1-c1nc(O)c2cc3c(cc2n1)ncn3Cc1ccc(F)cc1`, in that order: 60, > 100000, 4200, > 100000 and 0.48 nM.
For `CCCOc1ccccc1-c1nc(O)c2cc3[nH]cnc3cc2n1`, in that order: 1, 200, 100, 360 and 44 nM.
